In patent US12350337B2, “Polymeric drug delivery conjugates and methods of making and using thereof” (UNIVERSITY OF UTAH RESEARCH FOUNDATION, priority 2019, dated 2025):
Where no end group is shown, it is not given here. [ ]: non-standard residue; d: D form.

Tests used:
4T1 tumors [1] = experiment: In vivo ICD induction and immune cell analysis after two doses; set-up: species or system BALB/c mice; conditions: Day 15
Method: (§1) Fluorescence intensities were normalized to the same scale. Black circles indicate the tumor. (B) In vivo tumor cell uptake of EPI after the mice were treated with either free EPI or KT-1 (10 mg/kg EPI equivalence) at 1, 4, 7 days post injection. Data represent n=5 independently analyzed mice/group. […] Blue: cell nuclei; Green: EPI; Red: CRT. […] Data are represented as box plots (whiskers, 5th to 95th percentile). n=4 for saline and EPI treatments, and n=6 for KT-1 treatment, from a representative experiment from two independent experiments. * P<0.05 by student's t-test.
Having shown tumor-targeted delivery of KT-1, KT-1's impact on inducing ICD that implicates calreticulin (CRT) expression and high-mobility group box 1 (HMGB1) release was examined. CRT exposed on the surfaces of immunogenically dying tumor cells sends dendritic cells (DCs) an “eat me” signal to facilitate phagocytosis by antigen-presenting cells (APCs), while released HMGB1 functions as the “danger” signal and stimulates optimal antigen presentation to T cells. […] In FIG. 3D-E, BALB/c mice bearing non-immunogenic 4T1 tumors, were given two intravenous doses (on Days 7 and 14 after tumor implantation) of treatments with saline, EPI or KT-1 (first EPI equivalence dose 10 mg/kg followed by second dose 5 mg/kg).
This could be the result of efficiently triggering ICD-associated signals in tumors. […]

4T1 tumors [2] = experiment: 4T1 tumor growth, survival and endpoint tumor immune analysis (EPI, KT-1, α-CD8, α-PD-L1 combinations); type: in vivo, BALB/c mice
4T1 tumors [3] = experiment: In vivo tumoral PD-L1 expression and tumor-infiltrating lymphocytes after KT-1 followed by PD-L1 blockade; set-up: species or system BALB/c mice; conditions: for tumoral PD-L1 expression: KT-1 Days 7 and 14, PD-L1 blockade Day 15, two days post blockade
Method: (§2) (A) Schematic illustration of inhibiting PD-L1 recycling by MPPA crosslinking. (B) Lysosome colocalization with α-PD-L1-Cy5 or Cy3-labeled MPPA (P-(PPA)14-Cy3) after 3 h treatments at 37° C. Blue: nuclei; Red: Cy3/Cy5; Green: lysosome. (C) Whole cell PD-L1 expression with or without lysosome hydrolysis inhibition by E-64. 4T1 cells were treated with α-PD-L1, PPA, or MPPA for 3 h in the absence (−) or presence (+) of E-64 cysteine protease inhibitor. Afterward, cells were further incubated in cell culture medium for another 24 h, prior to PD-L1 quantification. (D) Time-dependent recovery of surface PD-L1. […] (E) In vivo tumoral PD-L1 expression, and (F) representative flow cytometry analysis plots of CD3+CD8+CTLs and CD4+ Foxp3+ Tregs after KT-1 and MPPA combination treatment as indicated by arrows in (E). n=3 in (C) and (D), and n=5 in (E) and (F), from a representative experiment from two independent experiments.
To validate the PD-L1 depletion in vivo, mice bearing 4T1-tumor were treated with α-PD-L1, PPA, or MPPA on Day 15, following two doses of KT-1 treatment on Day 7 and 14 (FIG. 7E). Tumoral PD-L1 expression and tumor-infiltrating lymphocytes were studied two days post PD-L1 blockade.

CT26 tumors = experiment: Subcutaneous CT26 colon carcinoma model; type: in vivo, BALB/c mice
Text: Blue: cell nuclei; Green: EPI; Red: CRT.
Moreover, KT-1→MPPA further improved the anti-tumor efficacy, and outperformed KT-1→α-PD-L1 (20% complete tumor regression), leading to complete regression of established tumors in 60% of animals (FIG. 15A).

PD-L1 [4] = target: T1, PD-L1 (Mus musculus, UniProt Q9EP73); experiment: Whole cell PD-L1 expression with or without E-64; type: cell-based, murine
T1 construct: Specificity of PPA towards PD-L1 on 4T1 cells; endogenous in cells; host or cells: 4T1 cells
T1 sequence (Q9EP73 19-290): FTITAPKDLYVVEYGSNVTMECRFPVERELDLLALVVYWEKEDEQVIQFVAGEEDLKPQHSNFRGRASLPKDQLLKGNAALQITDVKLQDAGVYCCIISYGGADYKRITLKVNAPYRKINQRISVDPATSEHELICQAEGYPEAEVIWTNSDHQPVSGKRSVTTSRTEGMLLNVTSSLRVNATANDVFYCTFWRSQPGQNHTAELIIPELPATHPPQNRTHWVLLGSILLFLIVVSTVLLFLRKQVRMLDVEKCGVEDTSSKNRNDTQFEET
Method: as §2
(§3) Together, these findings established the polymer-facilitated crosslinking of surface PD-L1 as a potential therapeutic strategy to produce prolonged elimination of PD-L1, rather than the transient blocking afforded by standard anti-PD-L1 antibodies.

4T1 cells [5] = experiment: Lysosome colocalization (confocal); type: cell-based, murine; conditions: 3 h at 37° C.
Method: as §2, §3

4T1 tumors [6] = experiment: 4T1 tumor therapy with PPA, MPPA and KT-1 combinations; type: in vivo, BALB/c mice
Text: (B) Individual tumor volume, (C) body weight change, and (D) survival rate in 4T1-tumor bearing BALB/c mice over time after different treatments (n=5-10). (E) Individual tumor volume measurement after naive control mice or KT-1→MPPA treated CR mice in (D) were subcutaneously re-challenged with 4T1 or CT26 cells (n=5). (F) The representative scatter plots of the percentage of tumor cell-reactive T cells (IFN-γ+CD8+) among PBMCs from KT-1→MPPA treated CR mice in (D) against 4T1 cells or CT26 cells (n=5). (G) Mice survival curve after re-challenge by i.v. injection of 4T1 cells after initial KT-1→MPPA treatment (n=5). (H) CD44+CD62L-memory effector CD8+ T cells in spleen after 4T1 cell i.v. re-challenge (n=5).

[7] = test system: LLC-1 Lewis lung carcinoma cells; experiment: Metastatic LLC-1 Lewis lung carcinoma model
Method: (I) Survival rate of mice after indicated treatments (n=5). C57BL/6 mice were intravenously inoculated with 2×10^5 LLC-1 Lewis lung carcinoma cells on day 0. Then mice were treated as described in (A). (J) The fold increases in the percentage tumor cell-reactive T cells (IFN-γ+CD8+) among PBMCs from mice in (I) on Day 25 against LLC-1 cells. (K) CD44+CD62L-memory effector CD8+ T cells in spleen from mice in (I) on Day 25. (L) Tumor burden in lungs from mice in (I) on Day 25, depicted as lung weight and hematoxylin-eosin histology analysis of lung lobe sections.* P<0.05, n.s, not significant, one-way ANOVA with Tukey's multiple comparison test.

PD-L1 [8] = target: T1, PD-L1; experiment: PPA specificity to PD-L1: inhibition of Cy5-labeled anti-PD-L1 antibody binding on 4T1 cells; set-up: species or system murine; conditions: 0.2 mM, pretreatment 1 h, co-incubation 1 h, 4° C.
Method: (A) The PD-1/PD-L1 interaction mediated by PPA from immune escape to cancer immunotherapy. (B) Specificity of PPA towards PD-L1 on 4T1 cells. Negative control: Cy5-labeled anti-CD20 mAb rituximab (RTX) incubation with 4T1 cells at 4° C. for 1 h; Positive control: Cy5-labeled anti-PD-L1 antibody incubation with 4T1 cells at 4° C. for 1 h; PPA: 0.2 mM PPA pretreatment for 1 h and co-incubation with Cy5-labeled anti-PD-L1 antibody for 1 h 4° C. […] (C) Synthesis scheme and characterization of Cy3-labeled HPMA copolymer-PPA conjugates with different PPA valences.
PD-L1 peptide antagonist (PPA), with the amino acid sequence shown in FIG. 8A, was reported to bind PD-L1 with high affinity, and further confirmed in FIG. 8B. To achieve multimeric PD-L1 crosslinking, PPA was grafted onto HPMA copolymer to generate the multivalent polymer-PPA conjugates. By varying the ratio of the reaction components, a panel of conjugates was prepared with different valences for subsequent evaluation. Three conjugates with Cy3 labeled backbone were prepared: P-(PPA)14-Cy3, P-(PPA)4.3-Cy3, P-(PPA)1.3-Cy3, with the subscript denotes the valence. Additionally, unlabeled MPPA for receptor depletion studies was prepared with degradable backbone.

PD-L1 [9] = target: T1, PD-L1; conditions: cited from earlier work
4T1 cells [10] = experiment: Internalization of surface bound P-(PPA)x-Cy3; type: cell-based, murine; conditions: 37° C., compared with low-valence P-(PPA)1.3-Cy3 and P-Cy3
Method: Then surface PD-L1 along with receptor-bound conjugates were removed by proteinase-K digestion (0.4 mg/mL, 20 min, 37° C.), and flow cytometry was used to measure the internalized conjugates. Experiments were conducted in triplicate.
as §3

4T1 tumor = test system: 4T1 tumor; set-up: species or system BALB/c mice; conditions: mouse, in vivo, iv
Method: as §1
KT-1, a degradable diblock HPMA copolymer-EPI conjugate with narrow polydispersity, was synthesized via one step reversible addition-fragmentation chain transfer (RAFT) polymerization and characterized in FIG. 2B and the techniques provided in Yang et al., J. Controlled Release, 218 (2015) 36-44. KT-1 has long-lasting retention in tumors. […] In contrast, KT-1-Cy5 profoundly accumulated at tumor site, which peaked at 24 h and lasted for at least 196 h.

[11] = 3 weekly treatments, EPI equivalence 10 mg/kg then two doses 5 mg/kg
[12] = KT-1 Days 7 and 14, PD-L1 blockade Day 15

## COc1cccc2c1C(=O)c1c(O)c3c(c(O)c1C2=O)C[C@@](O)(C(=O)CO)C[C@@H]3O[C@H]1C[C@H](N)[C@@H](O)[C@H](C)O1 [EPI, Epirubicin]
4T1 tumors [1]
  frequency of CD11c+CD11b+Ly6c+CD86+ cells in tumor-draining lymph nodes: failed to generate the subset of CD11c+CD11b+Ly6c+ DCs
4T1 tumors [2]; [11]
  animal survival: limited effect
  tumor growth: limited effect on controlling tumor
4T1 tumors [2]; endpoint of 3 weekly treatments
  tumor PD-L1 expression after chemotherapy: adaptively enriched

## MPPA: backbone-degradable HPMA copolymer grafted with multiple copies of PD-L1 peptide antagonist PPA, valence 12.6 (CNYSKPTDRQYHF)
4T1 tumors [3]; [12]
  tumor infiltration of CTLs: did not further enhance tumor infiltration of CTLs
4T1 tumors [3]
  tumoral PD-L1 expression: further reduction in PD-L1 expression
CT26 tumors; CT26, KT-1 days 7, 14, 21, anti-PD-L1 therapy days 15, 22
  tumor growth: marginal effect in inhibiting tumor growth
CT26 tumors; Day 17, after KT-1 Days 7 and 14, one dose Day 15
  PD-L1 expression in CT26 tumors: more profound decrease in PD-L1 expression than α-PD-L1
PD-L1 [4]; 24 h post cell binding, without E-64
  PD-L1 depletion: depleted PD-L1 to a higher degree than α-PD-L1
PD-L1 [4]; E-64 cysteine protease inhibitor present
  PD-L1 depletion in the presence of E-64: alleviated MPPA-triggered PD-L1 depletion
4T1 cells [5]
  lysosome colocalization: substantial MPPA internalized into lysosome
4T1 tumors [6]
  tumor growth / therapeutic efficacy: slightly better therapeutic efficacy than PPA
[7]; C57BL/6 mice, i.v. LLC-1 cells
  median survival: 28 days
[7]; Day 25
  reactive IFN-γ+CD8+ T cells in PBMCs and CD8+CD62L-CD44+ effector memory T cells in spleen: none of the treatments with saline, α-PD-L1, or MPPA increased the number

## NYSKPTDRQYHF [PPA]
4T1 tumors [3]; [12]
  Tregs in tumors: depleted Tregs
  tumor infiltration of CTLs: did not further enhance tumor infiltration of CTLs
4T1 tumors [3]
  tumoral PD-L1 expression: downregulated PD-L1 expression
PD-L1 [8]
  cell surface binding of anti-PD-L1 antibody after pretreatment: significantly inhibited
PD-L1 [9]
  binding to PD-L1 (reported): high affinity
4T1 tumors [6]
  tumor growth / therapeutic efficacy: barely delayed tumor growth

## P-(PPA)4.3-Cy3 ([dN][dY][dS][dK][dP][dT][dD][dR][dQ][dY][dH][dF]; also: conjugated to (PPA)4.3 and Cy3, places not given here)
4T1 cells [10]
  internalization rate: accelerated internalization rates

## P-(PPA)14-Cy3 ([dN][dY][dS][dK][dP][dT][dD][dR][dQ][dY][dH][dF]; also: conjugated to (PPA)14 and Cy3, places not given here)
4T1 cells [10]
  internalization rate: accelerated internalization rates

## cyanine 5 [Cy5]
4T1 tumor
  tumor retention (in words): rapidly eliminated from the tumor and barely detectable after 2 h post-injection
